“Also recorded” adds a separate entry of the source.
Columns and labels:
[1] = tested on: C. difficile M7404; test: In vitro polydatin bioactivation and C. difficile antagonism by conditioned (spent) media of B. uniformis WT; assay type: cell-based, Clostridioides difficile; details: polydatin 500 μM, 1/2-diluted, C. difficile M7404 growth 12 h (FIG. 5A)
Procedure: FIGS. 5A and 5B show microbiome-mediated polyphenol aglycone liberation. […] Step 2: Spent media was filter-sterilized. Step 3: C. difficile was grown in spent media from either vehicle or polydatin (top). […]
The experimental media consisted of a modified YCFA media (mYCFA; casitone (2.5 g/L), yeast extract (0.625 g/L), cysteine (0.5 g/L), magnesium sulfate heptahydrate (f.c. 365 μM), calcium chloride dihydrate (f.c. 610 μM), sodium bicarbonate (4 g/L), dipotassium phosphate (0.45 g/L), monopotassium phosphate (0.45 g/L), sodium chloride (0.9 g/L), sodium acetate (2.71 g/L), Hemin (50 mg/L), Vitamin K1 (0.25 mg/L), ferrous sulfate (4 μg/mL), and ATCC vitamin mix (1% v/v)) supplemented with glucose (15 mM, Sigma) plus ½-diluted B. uniformis WT or AgshD conditioned media from growth with or without polydatin. C. difficile growth was monitored by measuring the optical density at 600 nm (OD600) of each culture in a 384 well plate with an Epoch2 spectrophotometer (BioTek Instruments) for 12 hours.

[2] = tested on: C. difficile isolates; test: Phytochemical microbial killing assay, diverse C. difficile isolates; assay type: cell-based, Clostridioides difficile
Procedure: FIG. 3B provides a heatmap of growth of 20 Clostridioides difficile isolates in the absence of presence of the polyphenolic glycoside polydatin or the Bacteroides liberated aglycone resveratrol. […] Growth induction or inhibition is measured as the ratio of growth in media (AUC) supplemented with glucose and 150 μM polydatin or resveratrol versus growth in media (AUC) supplemented with glucose and vehicle. Value>1 is representative of enhanced growth in compound and value <1 is representative of inhibition of growth in compound.
Bacterial isolates were grown in vitro in media plus compound. Killing was measured by bacterial culture optical density (proxy for amount of bacteria in a culture).
Phytochemical microbial killing assays: All gut pathogen isolates were grown on brain-heart-infusion supplemented with hemin (50 mg/L) and vitamin K1 (0.25 mg/L) (BHIS) agar plates or in basal media (BSG; proteose peptone (20 g/L), yeast (5 g/L), NaCl (5 g/L), glucose (5 g/L), potassium phosphate dibasic (5 g/L), cysteine (0.5 g/L), hemin (50 mg/L), and vitamin K1 (0.25 mg/L). Isolates were recovered on and grown in pre-reduced media in a Coy anaerobic chamber (Coy Labs). To determine the fitness effects of phloridzin hydrate (TCI), phloretin (TCI), polydatin (TCI), and resveratrol (TCI) on enteric pathogen fitness, each pathogen isolate was recovered on a BHIS agar plate and incubated anaerobically at 37 °C for 48 h. A starter culture (1 mL) of BSG was inoculated with C. difficile and grown for 15 h. This starter culture was then used to inoculate a BSG sub-culture (1 mL) at a final dilution of 1:10. This sub-culture was grown for 3 h to an OD600~0.5 before being used to inoculate experimental cultures at a final dilution of 1:50. The experimental media consisted of a modified YCFA media (mYCFA; casitone (2.5 g/L), yeast extract (0.625 g/L), cysteine (0.5 g/L), magnesium sulfate heptahydrate (f.c. 365 μM), calcium chloride dihydrate (f.c. 610 μM), sodium bicarbonate (4 g/L), dipotassium phosphate (0.45 g/L), monopotassium phosphate (0.45 g/L), sodium chloride (0.9 g/L), sodium acetate (2.71 g/L), Hemin (50 mg/L), Vitamin K1 (0.25 mg/L), ferrous sulfate (4 μg/mL), ATCC vitamin mix (1% v/v)) supplemented with glucose (15 mM, Sigma) plus each compound (150 μM) or glucose (15 mM, Sigma) plus DMSO (0.15%, Sigma). Bacterial growth was monitored by measuring the optical density at 600 nm (OD600) of each culture in a 384 well plate with an Epoch2 spectrophotometer (BioTek Instruments) and MicroPlate stacker (Agilent BioTek) for 24 hours.

With `OC[C@H]1O[C@@H](Oc2cc(O)cc(/C=C/c3ccc(O)cc3)c2)[C@H](O)[C@@H](O)[C@@H]1O` [polydatin] the “anti-C. difficile activity of conditioned media from B. uniformis WT grown with polydatin” value [1] was “inhibited the growth of Clostridioides difficile in vitro; also recorded: generated potent anti-C.difficile activity”, the “growth inhibition of Clostridioides difficile” value ([2]; 150 μM, 20 C. difficile isolates, growth ratio (AUC) vs vehicle (FIG. 3B)) was “did not; also recorded: but not its parent glycoside polydatin” and the “killing / growth inhibition of diverse C. difficile isolates” value ([2]; in vitro, media plus compound, culture optical density (FIG. 4)) was “did not”.
